Data reported in the NIST ThermoML archive (doi:10.1021/je300799f).

How the values were obtained:
[1] = Liquid; for mass density: 101.3 kPa, Vibrating tube method; for vapor or sublimation pressure: Ebulliometric method (Recirculating still)
[2] = refractive index (Na D-line) (dimensionless); conditions: 298.15 K; 101.33 kPa; Liquid; Standard Abbe refractometry
[3] = xn = mol fraction of the nth substance listed; conditions: 101 kPa, Liquid, Vibrating tube method, x2 = 0

CCCC(=O)OCC [ethyl butanoate]
[1]
Conditions	mass density [kg/m3]	vapor or sublimation pressure [kPa]
288.15 K	884.01	–
298.15 K	873.5	–
308.15 K	862.85	–
318.15 K	852.26	–
328.15 K	841.55	–
377.33 K	–	60
378.63 K	–	62.5
379.81 K	–	65
380.99 K	–	67.5
382.1 K	–	70
383.23 K	–	72.5
384.31 K	–	75
385.34 K	–	77.5
386.35 K	–	80
387.34 K	–	82.5
388.31 K	–	85
389.25 K	–	87.5
390.17 K	–	90
391.06 K	–	92.5
391.94 K	–	95
392.81 K	–	97.5
393.66 K	–	100
394.26 K	–	101.32
394.31 K	–	101.32
395.43 K	–	105
397.05 K	–	110
398.57 K	–	115
400.1 K	–	120
401.54 K	–	125
402.99 K	–	130
404.34 K	–	135
405.62 K	–	140
406.96 K	–	145
408.22 K	–	150
409.45 K	–	155
410.61 K	–	160
411.77 K	–	165
412.95 K	–	170
414.05 K	–	175
415.01 K	–	180
416.08 K	–	185
417.14 K	–	190
418.15 K	–	195
419.14 K	–	200
420.12 K	–	205
421.1 K	–	210
422.01 K	–	215
422.94 K	–	220
423.85 K	–	225
424.79 K	–	230
425.67 K	–	235
426.53 K	–	240
427.35 K	–	245
428.2 K	–	250
429.04 K	–	255
429.84 K	–	260
430.65 K	–	265
431.42 K	–	270
432.23 K	–	275
433 K	–	280

Conditions	refractive index
[2]	1.3898

CCCCCCCCC [nonane]
[1]
Conditions	mass density [kg/m3]	vapor or sublimation pressure [kPa]
288.15 K	721.65	–
298.15 K	713.85	–
308.15 K	705.96	–
318.15 K	698.06	–
328.15 K	690.17	–
395.53 K	–	45
397.25 K	–	47.5
398.89 K	–	50
400.5 K	–	52.5
402.04 K	–	55
403.51 K	–	57.5
404.94 K	–	60
406.33 K	–	62.5
407.66 K	–	65
408.95 K	–	67.5
410.24 K	–	70
411.45 K	–	72.5
412.64 K	–	75
413.81 K	–	77.5
414.94 K	–	80
416.07 K	–	82.5
417.16 K	–	85
418.22 K	–	87.5
419.24 K	–	90
420.25 K	–	92.5
421.24 K	–	95
422.22 K	–	97.5
423.18 K	–	100
423.87 K	–	101.32
423.9 K	–	101.32
425.1 K	–	105
426.76 K	–	110
428.48 K	–	115
430.15 K	–	120
431.71 K	–	125
433.28 K	–	130
434.77 K	–	135
436.25 K	–	140
437.64 K	–	145
439.03 K	–	150
440.38 K	–	155
441.68 K	–	160
442.99 K	–	165
444.25 K	–	170
445.46 K	–	175
446.65 K	–	180
447.83 K	–	185
448.99 K	–	190
450.12 K	–	195
451.2 K	–	200
452.29 K	–	205
453.35 K	–	210
454.41 K	–	215
455.44 K	–	220
456.45 K	–	225
457.45 K	–	230
458.43 K	–	235
459.41 K	–	240
460.35 K	–	245
461.28 K	–	250
462.19 K	–	255
463.08 K	–	260
463.95 K	–	265
464.86 K	–	270
465.73 K	–	275
466.59 K	–	280

Conditions	refractive index
[2]	1.4032

CCCCCCCCC [nonane] + CCCC(=O)OCC
[3]
Conditions	mass density [kg/m3]
288.15 K	721.65
298.15 K	713.85
308.15 K	705.96
318.15 K	698.06
328.15 K	690.17

CCCC(=O)OC [methyl butanoate]
[1]
Conditions	mass density [kg/m3]	vapor or sublimation pressure [kPa]
288.15 K	903.31	–
298.15 K	892.31	–
308.15 K	881.19	–
318.15 K	870.06	–
328.15 K	858.8	–
354.1 K	–	50
355.47 K	–	52.5
356.79 K	–	55
358.1 K	–	57.5
359.34 K	–	60
360.56 K	–	62.5
361.72 K	–	65
362.84 K	–	67.5
363.94 K	–	70
364.99 K	–	72.5
366.05 K	–	75
367.04 K	–	77.5
368.03 K	–	80
369 K	–	82.5
370.01 K	–	85
370.93 K	–	87.5
371.84 K	–	90
372.72 K	–	92.5
373.58 K	–	95
374.42 K	–	97.5
375.27 K	–	100
375.74 K	–	101.32
376.91 K	–	105
378.42 K	–	110
379.91 K	–	115
381.34 K	–	120
382.73 K	–	125
384.07 K	–	130
385.37 K	–	135
386.63 K	–	140
387.87 K	–	145
389.07 K	–	150
390.24 K	–	155
391.38 K	–	160
392.48 K	–	165
393.58 K	–	170
394.64 K	–	175
395.67 K	–	180
396.7 K	–	185
397.68 K	–	190
398.67 K	–	195
399.61 K	–	200
400.54 K	–	205
401.46 K	–	210
402.37 K	–	215
403.25 K	–	220
404.13 K	–	225
404.97 K	–	230
405.81 K	–	235
406.64 K	–	240
407.45 K	–	245
408.26 K	–	250
409.05 K	–	255
409.83 K	–	260
410.58 K	–	265
411.35 K	–	270
412.09 K	–	275
412.83 K	–	280

Conditions	refractive index
[2]	1.3851

CCCCCCC [heptane]
[1]
Conditions	mass density [kg/m3]	vapor or sublimation pressure [kPa]
288.15 K	688.16	–
298.15 K	679.62	–
308.15 K	670.96	–
318.15 K	662.33	–
328.15 K	653.61	–
346.23 K	–	45
347.76 K	–	47.5
349.29 K	–	50
350.7 K	–	52.5
352.07 K	–	55
353.41 K	–	57.5
354.69 K	–	60
355.94 K	–	62.5
357.14 K	–	65
358.32 K	–	67.5
359.45 K	–	70
360.54 K	–	72.5
361.61 K	–	75
362.66 K	–	77.5
363.68 K	–	80
364.71 K	–	82.5
365.65 K	–	85
366.61 K	–	87.5
367.53 K	–	90
368.42 K	–	92.5
369.32 K	–	95
370.19 K	–	97.5
371.07 K	–	100
371.38 K	–	101.32
371.51 K	–	101.32
372.72 K	–	105
374.31 K	–	110
375.85 K	–	115
377.34 K	–	120
378.77 K	–	125
380.18 K	–	130
381.52 K	–	135
382.84 K	–	140
384.13 K	–	145
385.36 K	–	150
386.6 K	–	155
387.78 K	–	160
388.94 K	–	165
390.08 K	–	170
391.17 K	–	175
392.25 K	–	180
393.3 K	–	185
394.34 K	–	190
395.37 K	–	195
396.37 K	–	200
397.35 K	–	205
398.29 K	–	210
399.24 K	–	215
400.17 K	–	220
401.07 K	–	225
401.97 K	–	230
402.84 K	–	235
403.72 K	–	240
404.57 K	–	245
405.42 K	–	250
406.25 K	–	255
407.05 K	–	260
407.87 K	–	265
408.65 K	–	270
409.42 K	–	275
410.22 K	–	280

Conditions	refractive index
[2]	1.3853

CCCCCCC [heptane] + CCCC(=O)OC
[3]
Conditions	mass density [kg/m3]
288.15 K	688.16
298.15 K	679.62
308.15 K	670.96
318.15 K	662.33
328.15 K	653.61

CCCCCCCCC [nonane] + CCCC(=O)OC
[3]
Conditions	mass density [kg/m3]
288.15 K	721.65
298.15 K	713.85
308.15 K	705.96
318.15 K	698.06
328.15 K	690.17

CCCCCCC [heptane] + CCCC(=O)OCC
[3]
Conditions	mass density [kg/m3]
288.15 K	688.16
298.15 K	679.62
308.15 K	670.96
318.15 K	662.33
328.15 K	653.61
